These are literature values, as cited in US20210260003A9 (AZIENDE CHIMICHE RIUNITE ANGELINI FRANCESCO A.C.R.A.F. …, priority 2017, published 2021).

For series [1] the following is noted: orally administered.

As to hydroxypropyl-β-cyclodextrin, the solubility in water is on record as 600 mg/mL.

Turning to `CC(C(=O)O)c1cccc(C(=O)c2ccccc2)c1` (centres unmarked) [ketoprofen], in series [1], the “peak concentration (time)” value was 0.5 to 2 h.
